Patent US20230015647A1, “INHIBITORS OF HISTONE DEMETHYLASES (PFI-63 AND PFI-90) FOR THE TREATMENT OF CANCER AND FOR THE INHIBITION OF HISTONE DEMETHYLASE IN CELLS” (The United States of America,as represented by the …, priority 2019, published 2023)
“Also recorded” adds a separate entry of the source. Where two headings read alike, the source gives them in different places.

Legend:
[1] = tested on: SCMC cells; test: Caspase 3 apoptosis assay in SCMC cells; assay type: cell-based, human
Description: The impact of PFI-63 and PFI-90 on apoptosis in rhabdomyosarcoma cells was investigated by assaying caspase 3 levels in the cells, and by annexin V staining.

[2] = tested on: TC-32 Ewing's sarcoma cells; test: Cell confluence assay in TC-32 Ewing's sarcoma cells; assay type: cell-based; conditions: Homo sapiens, TC-32 cells
Description: (§1) A cell confluence assay was performed to further assess the cytotoxicity of PFI-63 in OSA-CL osteosarcoma cells. Confluence data was collected via photographic images of cells treated with PFI-63 at the following time points: 24 hours, 48 hours, 72 hours, 96 hours and 120 hours. Exemplary dose response curves at 72 hours are presented as FIGS. 59 and 60 for PFI-63 and PFI-90 respectively.
A similar assay was performed to assess the cytotoxicity of PFI-63 and PFI-90 in TC-32 Ewing's sarcoma cells. Exemplary dose response curves at 72 hours are presented as FIGS. 61 and 62 for PFI-63 and PFI-90 respectively.

[3] = tested on: rhabdomyosarcoma cells (i.e. RH4 and RH30 cells); test: Cell confluence / cell number, rhabdomyosarcoma cells taken together; assay type: cell-based
Description: Among the 64 compounds identified above, 33 compounds of unknown mechanism of action were identified.
as §1, with “RH4 and RH30 rhabdomyosarcoma” for “OSA-CL osteosarcoma”, “10” for “59”, “11 in RH4” for “60 for PFI-63”, “RH30 cells,” for “PFI-90”
as §1, with “to” for “to further”, “PFI-90” for “PFI-63”, “RH4 and RH30 rhabdomyosarcoma” for “OSA-CL osteosarcoma”, “32” for “59”, “33 in RH4” for “60 for PFI-63”, “RH30 cells,” for “PFI-90”

[4] = tested on: PAX3-FOXO1 fusion transcription factor; test: RH4 ALK-Luc luciferase reporter assay (PAX3-FOXO1 super enhancer activity); assay type: cell-based, human; conditions: for Avg Absorbance @ 1 μM, ALK-Luc / Avg Absorbance @ 10 μM, ALK-Luc: RH4 ALK-Luc reporter
Description: The screen was performed using two derivatives of RH4 FP-RMS cells: • (1) “ALK-Luc cells”—RH4 cells expressing a pGreenFire green fluorescent protein (GFP)-luciferase reporter (SEQ ID NO: 1) controlled by the PAX3-FOXO1-dependent intronic ALK super enhancer (for reporting on PAX3-FOXO1 activity) (FIGS. 1 and 2); and • (2) “CMV-Luc cells”—control RH4 cells in which the reporter is transcribed from a constitutively active cytomegalovirus (CMV) promoter. An Example of visualization via the ALK-Luc reporter is depicted in FIG. 3.
The cells were enriched for reporter expression levels and used for assay development. A high throughput screening assay was developed after optimization of cell seeding density, length of incubation of cells prior to and post treatment with test compounds, and effect of passaging among other factors. The screen was designed to identify compounds that suppressed PAX3-FOXO1 activity without disrupting viability (at a short time points) or general transcription. The assay simultaneously monitors the function of the PAX3-FOXO1 super enhancer (also referred to as “ALK super enhancer”), general transcriptional activity as well as cell viability.
The visual summary of the screening strategy is illustrated in FIG. 4. ALK-Luc cells were seeded in both white-walled and white-bottomed 384-well plates (Perkin Elmer, Cat #6007658) for luciferase assays and in clear 384-well plates (Perkin Elmer, Cat #6007688) for viability assay (XTT reduction) by transferring 27 μL of cell suspensions (seeding 3000 cells per well) into each well. The plates were then transferred into an incubator for 18-20 h. The CMV-Luc cells were similarly seeded into white plates and incubated.
A pure compound library of 62,643 compounds consisting of synthetic and natural products described previously (Grohar et al., J Natl. Cancer Inst., 103: 962-978 (2011)) was then used in a high throughput screening campaign to identify inhibitors of PAX3-FOXO1. Stock DMSO Solutions of these compounds were used to prepare 100 μM solutions in growth medium in 384-well plates also containing 16 wells each of a positive control (Actinomycin D, Sigma, Cat #A1410) and negative control (DMSO). Screening compounds along with the positive and negative controls were added to assay plates by transferring 3 μL of the prepared 100 μM dilutions using an automated liquid handler (Agilent, Bravo). Treated plates were incubated for 24 h. At the end of this period, treated plates were allowed to equilibrate to room temperature for 30 minutes. SteadyLite Plus luciferase assay reagent powder (PerkinElmer, Cat #6066759) was reconstituted in its buffer in parallel and was also allowed to equilibrate to room temperature.
After transferring 30 μL of the luciferase assay reagent using a liquid handler, plates were further incubated at room temperature for 10 minutes. Finally, luminescence measurements were carried out using a multi-label microplate reader (BMG, Pherastar FSX) set in luminescence mode. Cell viability was assessed by adding XTT reagent (10 μL per well) in clear plates containing treated ALK-Luc cells. XTT treated plates were read using a plate reader in absorbance mode at 450 nm (PerkinElmer, Envision) after further incubation for 1 hour to allow cells to metabolize XTT to a colored formazan product. Luminescence and XTT absorbance values were normalized to the average of the negative controls on each plate and were calculated as a percentage of these controls. Performance of the screening assay was routinely monitored via calculation of Z-factor (Zhang et al., J. Biomol. Screen., 4: 67-73 (1999)) with Z′ for all plates found to be >0.7.
RH4 ALK-Luc and RH4 CMV-Luc cells were seeded into separate white-walled and bottomed 384-well plates and were incubated and treated with screen hits and epigenome compounds. The highest test concentration of these compounds (10-fold) were prepared from DMSO stock solutions via dilution in medium. […]

[5] = tested on: RH4 cells; test: Gene set enrichment analysis (GSEA) of RNASeq gene expression; assay type: cell-based, human
Description: Gene set enrichment analyses (GSEA) were performed according to methods known in the art to evaluate […] in cells treated with PFI-63 as compared to control cells. Briefly, gene expression in RH4 cells treated with PFI-63 was assessed by RNASeq, and the results were statistically compared with various pre-existing gene sets. […] The results also indicate that RH4 cells treated with PFI-63 experience upregulation of targets associated with myogenic differentiation and apoptosis (see FIGS. 18 and 19).
GSEA assays like those performed in Example 3 above, were also performed to assess PFI-90. The results for PFI-90 were similar to those obtained for PFI-63. […] The results also indicate that cells treated with PFI-90 experience upregulation of targets associated with myogenic differentiation and apoptosis (see FIGS. 39-40).

[6] = tested on: RH4 cells; test: Cell confluence assay (cytotoxicity) in RH4 cells; assay type: cell-based; conditions: Homo sapiens, 72 hour time point
Description: as §1, with “RH4 and RH30 rhabdomyosarcoma” for “OSA-CL osteosarcoma”, “10” for “59”, “11 in RH4” for “60 for PFI-63”, “RH30 cells,” for “PFI-90”
as §1, with “to” for “to further”, “PFI-90” for “PFI-63”, “RH4 and RH30 rhabdomyosarcoma” for “OSA-CL osteosarcoma”, “32” for “59”, “33 in RH4” for “60 for PFI-63”, “RH30 cells,” for “PFI-90”

[7] = 72 hour time point, read-out: IC50
[8] = approximate, read-out: IC50 (toxic to Ewing's sarcoma cells)

Structure (SMILES) | caspase 3 [1] | IC50 [2, 7] [nM] | IC50 [2, 8] [nM] | IC50 ([3]; FIGS. 8-9 (cell number by confluency, RH4, RH30, RH30.19luc), read-out: IC50) [µM] | IC50 ([3]; RH4 and RH30 cells, approximate, read-out: IC50 (toxic to rhabdomyosarcoma cells)) [µM] | suppression of PAX3-FOXO1 super enhancer activity [4] | Avg Absorbance @ 1 μM, ALK-Luc [4] | Avg Absorbance @ 10 μM, ALK-Luc [4] | GSEA: genes that are induced upon KDM3B suppression [5] | GSEA: targets associated with apoptosis [5] | GSEA: targets associated with myogenic differentiation [5] | GSEA: targets of the PAX3-FOXO1 fusion transcription factor [5] | GSEA: targets that are upregulated by GSK-J4 [5] | GSEA: targets that are upregulated by JIB-04 [5] | IC50 [6] [nM] | cytotoxicity compared with PFI-63 ([3]; rhabdomyosarcoma cells (RH4, RH30))
Cc1cc(C)cc(C(=O)NNC(=O)c2ccccn2)c1 [PFI-63] | increased caspase 3 | 1880 | ~2000 | 2 to 6 | 3 to 5 | significant suppression | 91.4 | 40.1 | upregulated | upregulation | upregulation | downregulated | upregulated; also recorded: upregulation | upregulated; also recorded: upregulation | 3660 | 
O=C(NNc1ccccn1)c1ccccn1 [PFI-90] | increased caspase 3 | 1110 | ~1000 |  |  |  | 55.9 | 34.0 | upregulated | upregulation | upregulation | downregulated |  |  | 812 | more cytotoxic to rhabdomyosarcoma cells than PFI-63
